Experimental data as given in patent publication EP0696280B1, “SUBSTITUTED PYRROLIDIN-3-YL-ALKYL-PIPERIDINES USEFUL AS TACHYKININ ANTAGONISTS” (MERRELL PHARMACEUTICALS INC., priority 1993, dated 1994).
Where a name gives a salt, the structure may show the parent alone.

Legend:
[1] = system: NKA-induced respiratory effects; experiment: Antagonism of NKA aerosol induced respiratory effects in conscious guinea pigs (whole body plethysmography); format: in vivo, guinea pig; settings: 20 min prior to NKA aerosol (0.05%); for DYSPNEA ONSET: mean and SEM
Description: In vivo experiments were performed using male Duncan Hartley guinea pigs (250-350g). Changes in conscious breathing patterns were monitored in four animals simultaneously using modified whole body plethysmography consisting of four small plexiglass boxes each connected to a reference box via Validyne DP 45-16 differential pressure transducers. The 4 boxes were equipped with an air supply line (also used for aerosol delivery) and an exhaust air line. Supply and exhaust lines were of the same length and narrow bore and arose from a common supply chamber and vented to a common exhaust chamber. This system was used to ensure that fluctuations in supply air and atmospheric pressure would remain in phase and be eliminated from the net signal by the differential pressure transducers. The analog pressure signals were digitalized via a Data Translation DT2821 A to D board. Data were collected at a rate of 100 samples/second/animal. Each cycle of pressure change was analyzed using the following parameters: rising and falling slope determined between minimum and maximum pressures, the ratio of rising over falling slope, and the magnitude of the change between initial trough pressure and peak cycle pressure. Using these values (and observing the animals) the pressure cycles were characterized into normal breaths, forced exhalations (apparent by abdominal heaving), significant respiratory events (SREs; usually coughs, less often sneezes or gasps which were characterized by transient, extremely large pressure increases which were distinguishable from noise) and movement/noise with a PCAT 286 running a System V UNIX operating system. Dyspnea was defined as a significant, sustained increase in plethysmograph pressure which was associated with an observable shift to labored breathing in the animal.
During the course of a typical experiment in which airway responsiveness to various bronchoconstricting agents was examined, aerosols were delivered for 19 min (0.33 ml/min) using a DeVilbiss Ultraneb 99 ultrasonic nebulizer and animals monitored during this time. Prior to nebulization, 1 min of resting breathing was collected to establish a baseline pressure. […] The vehicle for nebulization of all bronchoconstrictive agents was phosphate buffered saline (pH 7.4) which elicited no respiratory effects itself. Putative tachykinin antagonists were administered either (i.v.) 20 min prior to onset of aerosol exposure or orally 1 hour prior to onset (to guinea pigs after an overnight fast).
Table 6 illustrates the effects of the compounds of Example 3; Example 20A; and Example 5A on respiratory effects induced by NKA aerosol. […] These effects were dose dependent i.e. the higher the dose of compound, the greater attenuation of NKA-mediated effects. […]
Compounds were administered 20 min prior to initiation of NKA aerosol (0.05%). Values for each treatment represent the mean and SEM of data from 5-37 animals per dose.

NK-3 receptor = biological target: T1, NK-3 receptor (Cavia porcellus, UniProt P30098); experiment: Antagonism of iodinated tachykinin binding to NK-3 receptor (125I-Bolton Hunter labeled Lys-4 eledoisin, guinea pig cerebral cortex membranes)
T1 construct: freshly collected guinea pig cerebral cortex; from tissue; host or cells: guinea pig cerebral cortex membranes
T1 sequence (P30098 1-440): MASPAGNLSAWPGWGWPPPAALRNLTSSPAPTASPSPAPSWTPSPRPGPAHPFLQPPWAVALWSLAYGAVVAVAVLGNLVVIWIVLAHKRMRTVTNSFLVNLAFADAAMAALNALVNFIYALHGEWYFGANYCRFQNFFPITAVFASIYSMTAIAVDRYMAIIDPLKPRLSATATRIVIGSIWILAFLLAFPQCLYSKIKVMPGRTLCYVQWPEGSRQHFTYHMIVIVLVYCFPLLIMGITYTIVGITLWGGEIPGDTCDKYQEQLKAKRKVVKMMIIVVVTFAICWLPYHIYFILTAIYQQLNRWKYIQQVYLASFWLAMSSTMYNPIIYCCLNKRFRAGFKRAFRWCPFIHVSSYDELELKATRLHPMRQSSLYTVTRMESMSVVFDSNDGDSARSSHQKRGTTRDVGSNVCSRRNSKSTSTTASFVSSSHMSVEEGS
Description: The NK1 receptor affinity of proposed tachykinin antagonists was devaluated in guinea pig lungs (Keystone Biologicals, Cleveland, OH), affinity for the NK2 receptor evaluated in HSKR-1 cells (which are mouse 3T3 fibroblasts expressing the human jejunal NK2 receptor) and NK-3 receptor affinity was evaluated in freshly collected guinea pig cerebral cortex. Tissues or cells were homogenized with a Polytron in 15 volumes of 50 mM Tris-HCl buffer (pH 7.4, 4°C) and centrifuged. The pellet was resuspended in Tris-HCl buffer and was centrifuged; the pellet was washed twice by resuspension. The final pellet was resuspended at a concentration of 40 mg/ml for tissues (guinea pig lung and cerebral cortex) and 20 mg/ml for cells in incubation buffer and remained at room temperature for at least 15 min prior to use. Receptor binding was initiated by addition of 250 µl membrane preparation in duplicate to 0.1 nM of the following radioligands: ^125I-Bolton Hunter Lys-3 labeled substance P; ^125iodohistidyl-1-neurokinin A; and ^125I-Bolton Hunter labeled Lys-4 eledoisin in a final volume of 500 µl of buffer containing 50 mM Tris-HCl (pH 7.4 at room temperature), 0.1% bovine serum albumin, 2 mM MnCl2, 40 µg/ml bacitracin, 4 µg/ml leupeptin and chymostatin, 1 µM thiorphan and various doses of the putative tachykinin antagonists. Incubations were performed at room temperature for 90 min (NK1 receptor assays) or 2 hr (NK2 and NK3 receptor assays); binding was terminated by addition of 50 mM Tris-HCl buffer (pH 7.4, 4°C) and filtration under vacuum through GF/B filters presoaked with 0.1% polyethyleneimine (NK1 receptor assays) or 0.5% bovine serum albumin (NK2 and NK3 receptor assays). Filter bound radioactivity was quantitated in a gamma counter. Nonspecific binding was defined as binding in the presence of 1 µM substance P, neurokinin A, or eledoisin. Specific binding was calculated by subtracting nonspecific binding from total binding. Competition of iodinated SP, NKA, or eledoisin binding by test compounds or standards was expressed as a percentage of this maximum competition. IC50 values (concentration required to inhibit 50% of receptor binding) were generated for each of the test compounds by nonlinear regression using an iterative curve fitting program (GraphPAD Inplot, San Diego, CA).

Row | SMILES | DYSPNEA INCIDENCE ([1]; 5 mg/kg) | DYSPNEA ONSET ([1]; 5 mg/kg) | DYSPNEA INCIDENCE ([1]; 10 mg/kg) | DYSPNEA ONSET ([1]; 10 mg/kg) | affinity for NK3 receptors (NK-3 receptor; result in words) | IC50 (NK-3 receptor)
1 | COc1cccc(OC)c1C(=O)N1CCC(CCN2CCC(C(N)=O)(c3ccccc3)CC2)(c2ccc(Cl)c(Cl)c2)C1 (racemic) [Example 5A, 1-[2-[3-(3,4-dichloro-phenyl-3-yl)-1-(2,6-dimethoxy-benzoyl)-pyrrolidin-3-yl]-ethyl]-4-phenyl-piperidine-4-carboxylic acid amide hydrochloride] | 60% (3/5) | 654 ± 37 s | 54% (7/13) | 608 ± 65 s |  | 
2 | COc1cc(C(=O)N2CCC(CCN3CCC(C(N)=O)(c4ccccc4)CC3)(c3ccc(Cl)c(Cl)c3)C2)cc(OC)c1OC (stereo not shown) [Example 3, 1-[2-[3-(3,4-dichloro-phenyl)-1-(3,4,5-trimethoxy-benzoyl)-pyrrolidin-3-yl]-ethyl]-4-phenyl-piperidine-4-carboxylic acid amide] | 86% (6/7) | 394 ± 32 s | 60% (6/10) | 801 ± 104 s | high affinity | 
3 | COc1cc(C(=O)N2CCC(CCN3CCC(C(N)=O)(c4ccccc4)CC3)(c3ccc(Cl)c(Cl)c3)C2)cc(OC)c1OC (racemic) [Example 3A, 1-[2-[3-(3,4-dichloro-phenyl-3-yl)-1-(3,4,5-trimethoxy-benzoyl)-pyrrolidin-3-yl]-ethyl] -4-phenyl-piperidine-4-carboxylic acid amide hydrochloride] |  |  |  |  |  | 54.2 nM
